{"source": "patent US10493082B2", "about": "“4-pregenen-11β-17-21-triol-3,20-dione derivatives” (Allergan, Inc., priority 2011, dated 2019)", "key": {"[1]": {"target": "T1, Glucocorticoid receptor (GR) (Homo sapiens, UniProt P04150)", "T1 construct": "host or cells: MMTV-bla HeLa CELLSENSOR", "T1 sequence (P04150 1-777)": "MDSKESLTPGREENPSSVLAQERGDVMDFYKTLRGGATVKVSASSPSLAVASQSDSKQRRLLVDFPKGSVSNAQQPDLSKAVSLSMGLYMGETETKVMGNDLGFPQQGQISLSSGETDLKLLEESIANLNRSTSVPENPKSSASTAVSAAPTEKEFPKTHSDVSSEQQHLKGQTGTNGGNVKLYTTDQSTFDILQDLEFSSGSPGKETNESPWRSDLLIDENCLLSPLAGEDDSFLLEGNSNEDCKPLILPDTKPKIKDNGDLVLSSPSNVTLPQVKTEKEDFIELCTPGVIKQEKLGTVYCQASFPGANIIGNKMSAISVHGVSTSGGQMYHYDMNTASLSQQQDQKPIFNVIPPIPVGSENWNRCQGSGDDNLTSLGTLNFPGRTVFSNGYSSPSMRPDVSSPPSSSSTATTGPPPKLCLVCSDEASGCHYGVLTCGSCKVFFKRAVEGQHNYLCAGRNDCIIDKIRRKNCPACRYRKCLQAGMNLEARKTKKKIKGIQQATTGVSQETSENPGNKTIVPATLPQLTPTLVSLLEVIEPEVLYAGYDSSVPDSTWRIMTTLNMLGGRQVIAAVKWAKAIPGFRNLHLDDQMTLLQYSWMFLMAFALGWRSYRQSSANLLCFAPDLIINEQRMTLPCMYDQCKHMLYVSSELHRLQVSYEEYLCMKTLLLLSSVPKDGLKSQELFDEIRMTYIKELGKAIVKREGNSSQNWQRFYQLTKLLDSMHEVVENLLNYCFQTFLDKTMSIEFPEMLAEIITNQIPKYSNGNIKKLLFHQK", "experiment": "Glucocorticoid receptor transactivation, MMTV-bla HeLa CELLSENSOR β-lactamase reporter, agonist mode", "assay_type": "cell-based", "details": "for % Activation at 100 nM: GR, 5 hours; for greater potency compared to the parent molecule cortisol: GR signaling pathway, relative to cortisol", "protocol": "Glucocorticoid receptor (GR) activation potency was assessed using a HeLa cell line containing the MMTV-bla reporter (MMTV-bla HeLa CELLSENSOR®, Invitrogen Corp., Carlsbad, Calif.). This cell line was stably transfected with an expression construct containing β-lactamase cDNA under control of the MMTV response element previously identified as a glucocorticoid receptor response element. […] All assays were performed as 10-point dose responses using a half log-fold dilution series starting with a maximum compound concentration of 100 nM. The compounds were incubated for 5 hours. The activation of endogenous GR leads to expression of the reporter β-lactamase which is detected by the conversion of a FRET substrate in a ratiometric assay format. This functional assay allows for measurement of receptor agonism by compounds and can be used to determine compound potency and selectivity. Assay reproducibility was determined by calculating Z′ values for untreated versus maximum stimulation."}, "[2]": {"details": "patients, applied locally via eye drops, compared to dexamethasone, prednisolone and fluorometholone; cited from earlier work"}, "[3]": {"target": "T2, fusion protein GAL4(DBD)-MR(LBD) (Homo sapiens, UniProt P08235)", "T2 sequence (P08235 726-964 limits assumed)": "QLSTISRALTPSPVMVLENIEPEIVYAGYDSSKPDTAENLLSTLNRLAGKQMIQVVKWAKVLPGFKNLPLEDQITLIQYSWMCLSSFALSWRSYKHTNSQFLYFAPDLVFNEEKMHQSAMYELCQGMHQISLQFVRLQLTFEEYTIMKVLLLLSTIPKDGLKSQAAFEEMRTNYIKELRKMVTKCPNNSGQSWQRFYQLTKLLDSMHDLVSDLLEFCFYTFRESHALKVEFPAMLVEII", "experiment": "Mineralocorticoid receptor transactivation, UAS-bla HEK 293T CELLSENSOR β-lactamase reporter, agonist mode", "assay_type": "cell-based", "details": "for % Activation at 100 nM: MR, UAS-bla HEK 293T, agonist mode, 16 hours", "protocol": "Mineralocorticoid receptor (MR) activation potency was assessed using a HEK 293T cell line containing the UAS-bla reporter (UAS-bla HEK 293T CELLSENSOR®). This cell line was stably cotransfected with an expression construct containing β-m lactamase cDNA under control of the GAL4 Upstream Activator Sequence (UAS) and another expression construct encoding for the fusion protein GAL4(DBD)-MR(LBD). […] All assays were performed as 10-point dose responses using a half log-fold dilution series starting with a maximum compound concentration of 100 nM. The compounds were incubated for 16 hours. The activation of the fusion protein GAL4(DBD)-MR(LBD) leads to expression of the reporter β-lactamase which is detected by the conversion of a FRET substrate in a ratiometric assay format. This functional assay allows for measurement of receptor agonism by compounds and can be used to determine compound potency and selectivity. Assay reproducibility was determined by calculating Z′ values for untreated versus maximum stimulation."}}, "data": [{"smiles": "C[C@]12CCC(=O)C=C1CC[C@@H]1[C@@H]2[C@@H](O)C[C@@]2(C)[C@H]1CC[C@]2(O)C(=O)CO", "values": [{"measurement": "% Activation at 100 nM", "setting": "[1]; MMTV-bla HeLa, agonist mode", "value": 43, "unit": "%"}]}, {"smiles": "C[C@]12CCC(=O)C=C1CC[C@@H]1[C@@H]2[C@@H](O)C[C@@]2(C)[C@H]1CC[C@]2(OC(=O)c1ccccc1)C(=O)CO", "note": "[cortisol 17-benzoate]", "values": [{"measurement": "greater potency compared to the parent molecule cortisol", "setting": "[1]", "value": "about 30 fold"}]}, {"smiles": "C[C@]12CCC(=O)C=C1CC[C@@H]1[C@@H]2[C@@H](O)C[C@@]2(C)[C@H]1CC[C@]2(OC(=O)C1CCCC1)C(=O)CO", "note": "[cortisol 17-cyclopentanoate]", "values": [{"measurement": "greater potency compared to the parent molecule cortisol", "setting": "[1]", "value": "about 30 fold"}]}, {"smiles": "C[C@]12CCC(=O)C=C1CC[C@@H]1[C@@H]2[C@@H](O)C[C@@]2(C)[C@H]1CC[C@]2(O)C(=O)CO", "note": "[cortisol]", "values": [{"measurement": "effect on intraocular pressure", "setting": "[2]", "value": "minimal effect on intraocular pressure"}]}, {"smiles": "C[C@]12CCC(=O)C=C1CC[C@@H]1[C@@H]2[C@@H](O)C[C@@]2(C)[C@H]1CC[C@]2(OC(=O)CCS(=O)(=O)c1ccccc1)C(=O)CO", "note": "[drawing 14]", "values": [{"measurement": "% Activation at 100 nM", "setting": "[1]; MMTV-bla HeLa, agonist mode", "value": 17, "unit": "%"}, {"measurement": "EC50", "setting": "[1]; MMTV-bla HeLa, agonist mode, 5 hours incubation, max concentration 100 nM, one experiment in duplicate", "value": "> 100", "unit": "nM"}]}, {"smiles": "C[C@]12CCC(=O)C=C1CC[C@@H]1[C@@H]2[C@@H](O)C[C@@]2(C)[C@H]1CC[C@]2(OC(=O)Cc1ccc(Br)cc1)C(=O)CO", "note": "[drawing 15]", "values": [{"measurement": "% Activation at 100 nM", "setting": "[1]; MMTV-bla HeLa, agonist mode", "value": 0, "unit": "%"}]}, {"smiles": "C[C@]12CCC(=O)C=C1CC[C@@H]1[C@@H]2[C@@H](O)C[C@@]2(C)[C@H]1CC[C@]2(OC(=O)CCS(=O)(=O)c1ccccc1)C(=O)CO", "note": "[drawing 18]", "values": [{"measurement": "EC50", "setting": "[3]", "value": 3.48, "unit": "nM"}, {"measurement": "% Activation at 100 nM", "setting": "[3]", "value": 79, "unit": "%"}]}, {"smiles": "C[C@]12CCC(=O)C=C1CC[C@@H]1[C@@H]2[C@@H](O)C[C@@]2(C)[C@H]1CC[C@]2(OC(=O)Cc1ccc(Br)cc1)C(=O)CO", "note": "[drawing 19]", "values": [{"measurement": "EC50", "setting": "[3]", "value": 5.53, "unit": "nM"}, {"measurement": "% Activation at 100 nM", "setting": "[3]", "value": 77, "unit": "%"}]}]}
